Measured values taken from the supplement of paper PMC10307832.

Legend:
Assay in all cases: relative viability (nuclei count vs DMSO), 5 days (fraction); higher = more cells survive
SW 900 = system: SW 900
Method in brief: (§1)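 Values are medians from duplicate plates. Each reflects relative viability, defined as the nuclei count of treated wells over that of vehicle wells. Lung cancer cell lines in 1536-well plates were pin-tool dosed one day after seeding with one drug alone or with a fixed anchor-drug dose plus five library-drug doses (not always all listed) in √10 steps, then fixed, stained and imaged at 4× after 5 days.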

NCI-H2342 = system: NCI-H2342
Method in brief: as §1

NCI-H1563 = system: NCI-H1563
Method in brief: as §1

NCI-H522 = system: NCI-H522
Method in brief: as §1

NCI-H1623 = system: NCI-H1623
Method in brief: as §1

A549 = system: A549
Method in brief: as §1

EBC-1 = system: EBC-1
Method in brief: as §1

NCI-H1703 = system: NCI-H1703
Method in brief: as §1

Calu-6 = system: Calu-6
Method in brief: as §1

IA-LM = system: IA-LM
Method in brief: as §1

NCI-H1299 = system: NCI-H1299
Method in brief: as §1

NCI-H1648 = system: NCI-H1648
Method in brief: as §1

O=c1[nH]c2ccccc2n1C1CCN(CCCC(c2ccc(F)cc2)c2ccc(F)cc2)CC1 [Pimozide] + Cc1nc(Nc2ncc(C(=O)Nc3c(C)cccc3Cl)s2)cc(N2CCN(CCO)CC2)n1 [Dasatinib] (partner 0.075 µM)
relative viability (SW 900; first compound 0.08 µM): 0.51 | relative viability (SW 900; first compound 0.253 µM): 0.816 | relative viability (SW 900; first compound 0.8 µM): 0.37 | relative viability (SW 900; first compound 2.53 µM): 0.551 | relative viability (SW 900; first compound 8 µM): 0.567 | relative viability (NCI-H2342; first compound 0.08 µM): 0.33 | relative viability (NCI-H2342; first compound 0.253 µM): 0.337 | relative viability (NCI-H2342; first compound 0.8 µM): 0.339 | relative viability (NCI-H2342; first compound 2.53 µM): 0.299 | relative viability (NCI-H2342; first compound 8 µM): 0.323 | relative viability (NCI-H1563; first compound 0.08 µM): 0.474 | relative viability (NCI-H1563; first compound 0.253 µM): 0.429 | relative viability (NCI-H1563; first compound 0.8 µM): 0.484 | relative viability (NCI-H1563; first compound 2.53 µM): 0.426 | relative viability (NCI-H1563; first compound 8 µM): 0.459 | relative viability (NCI-H522; first compound 0.08 µM): 0.856 | relative viability (NCI-H522; first compound 0.253 µM): 0.883 | relative viability (NCI-H522; first compound 0.8 µM): 0.81 | relative viability (NCI-H522; first compound 2.53 µM): 0.924 | relative viability (NCI-H522; first compound 8 µM): 0.86 | relative viability (NCI-H1623; first compound 0.253 µM): 0.597 | relative viability (NCI-H1623; first compound 0.8 µM): 0.536 | relative viability (NCI-H1623; first compound 2.53 µM): 0.52 | relative viability (NCI-H1623; first compound 8 µM): 0.56

O=c1[nH]c2ccccc2n1C1CCN(CCCC(c2ccc(F)cc2)c2ccc(F)cc2)CC1 [Pimozide] + N=C(N)NC(=N)NCCc1ccccc1 [Phenformin] (partner 250 µM)
relative viability (SW 900; first compound 0.08 µM): 0.574 | relative viability (SW 900; first compound 0.253 µM): 0.685 | relative viability (SW 900; first compound 0.8 µM): 0.375 | relative viability (SW 900; first compound 2.53 µM): 0.552 | relative viability (SW 900; first compound 8 µM): 0.516 | relative viability (NCI-H2342; first compound 0.08 µM): 0.655 | relative viability (NCI-H2342; first compound 0.253 µM): 0.543 | relative viability (NCI-H2342; first compound 0.8 µM): 0.555 | relative viability (NCI-H2342; first compound 2.53 µM): 0.536 | relative viability (NCI-H2342; first compound 8 µM): 0.639 | relative viability (NCI-H1563; first compound 0.08 µM): 0.721 | relative viability (NCI-H1563; first compound 0.253 µM): 0.771 | relative viability (NCI-H1563; first compound 0.8 µM): 0.668 | relative viability (NCI-H1563; first compound 2.53 µM): 0.663 | relative viability (NCI-H1563; first compound 8 µM): 0.64 | relative viability (NCI-H522; first compound 0.08 µM): 0.569 | relative viability (NCI-H522; first compound 0.253 µM): 0.655 | relative viability (NCI-H522; first compound 0.8 µM): 0.628 | relative viability (NCI-H522; first compound 2.53 µM): 0.804 | relative viability (NCI-H522; first compound 8 µM): 0.671 | relative viability (NCI-H1623; first compound 0.253 µM): 0.575 | relative viability (NCI-H1623; first compound 0.8 µM): 0.57 | relative viability (NCI-H1623; first compound 2.53 µM): 0.617 | relative viability (NCI-H1623; first compound 8 µM): 0.629 | relative viability (A549; first compound 0.08 µM): 0.154 | relative viability (A549; first compound 0.253 µM): 0.171 | relative viability (A549; first compound 0.8 µM): 0.152 | relative viability (A549; first compound 2.53 µM): 0.156 | relative viability (A549; first compound 8 µM): 0.173

O=c1[nH]c2ccccc2n1C1CCN(CCCC(c2ccc(F)cc2)c2ccc(F)cc2)CC1 [Pimozide] + O=C(c1cc(Cc2n[nH]c(=O)c3ccccc23)ccc1F)N1CCN(C(=O)C2CC2)CC1 [Olaparib] (partner 8 µM)
relative viability (EBC-1; first compound 0.08 µM): 0.651 | relative viability (EBC-1; first compound 0.253 µM): 0.695 | relative viability (EBC-1; first compound 0.8 µM): 0.723 | relative viability (EBC-1; first compound 2.53 µM): 0.626 | relative viability (EBC-1; first compound 8 µM): 0.676 | relative viability (SW 900; first compound 0.08 µM): 0.955 | relative viability (SW 900; first compound 0.253 µM): 0.893 | relative viability (SW 900; first compound 2.53 µM): 0.839 | relative viability (SW 900; first compound 8 µM): 0.892 | relative viability (NCI-H2342; first compound 0.08 µM): 0.438 | relative viability (NCI-H2342; first compound 0.253 µM): 0.355 | relative viability (NCI-H2342; first compound 0.8 µM): 0.397 | relative viability (NCI-H2342; first compound 2.53 µM): 0.403 | relative viability (NCI-H2342; first compound 8 µM): 0.411 | relative viability (NCI-H1703; first compound 0.08 µM): 0.352 | relative viability (NCI-H1703; first compound 0.253 µM): 0.324 | relative viability (NCI-H1703; first compound 0.8 µM): 0.374 | relative viability (NCI-H1703; first compound 2.53 µM): 0.439 | relative viability (NCI-H1703; first compound 8 µM): 0.341 | relative viability (Calu-6; first compound 0.08 µM): 0.651 | relative viability (Calu-6; first compound 0.253 µM): 0.568 | relative viability (Calu-6; first compound 0.8 µM): 0.597 | relative viability (Calu-6; first compound 2.53 µM): 0.575 | relative viability (Calu-6; first compound 8 µM): 0.425 | relative viability (IA-LM; first compound 0.08 µM): 0.84 | relative viability (IA-LM; first compound 0.253 µM): 0.737 | relative viability (IA-LM; first compound 0.8 µM): 0.873 | relative viability (IA-LM; first compound 2.53 µM): 0.82 | relative viability (IA-LM; first compound 8 µM): 0.812 | relative viability (NCI-H1299; first compound 0.08 µM): 0.983 | relative viability (NCI-H1299; first compound 0.253 µM): 0.973 | relative viability (NCI-H1299; first compound 0.8 µM): 0.931 | relative viability (NCI-H1299; first compound 2.53 µM): 0.948 | relative viability (NCI-H1299; first compound 8 µM): 0.898 | relative viability (NCI-H522; first compound 0.08 µM): 0.569 | relative viability (NCI-H522; first compound 0.253 µM): 0.54 | relative viability (NCI-H522; first compound 0.8 µM): 0.751 | relative viability (NCI-H522; first compound 2.53 µM): 0.592 | relative viability (NCI-H522; first compound 8 µM): 0.72 | relative viability (NCI-H1648; first compound 0.08 µM): 0.805 | relative viability (NCI-H1648; first compound 0.8 µM): 0.522 | relative viability (NCI-H1648; first compound 2.53 µM): 0.619 | relative viability (NCI-H1648; first compound 8 µM): 1.1 | relative viability (A549; first compound 0.08 µM): 0.237 | relative viability (A549; first compound 0.253 µM): 0.319 | relative viability (A549; first compound 0.8 µM): 0.271 | relative viability (A549; first compound 2.53 µM): 0.34 | relative viability (A549; first compound 8 µM): 0.347
